pIC50: −log10 of the molar value.
Target: T1, human HSL (Homo sapiens, UniProt Q05469)
T1 construct: generate a full length human HSL ORF with a 3′-His6 tag; made in house; host or cells: High 5 insect cells (baculovirus, pFast-BAC)
T1 sequence (Q05469 1-1076): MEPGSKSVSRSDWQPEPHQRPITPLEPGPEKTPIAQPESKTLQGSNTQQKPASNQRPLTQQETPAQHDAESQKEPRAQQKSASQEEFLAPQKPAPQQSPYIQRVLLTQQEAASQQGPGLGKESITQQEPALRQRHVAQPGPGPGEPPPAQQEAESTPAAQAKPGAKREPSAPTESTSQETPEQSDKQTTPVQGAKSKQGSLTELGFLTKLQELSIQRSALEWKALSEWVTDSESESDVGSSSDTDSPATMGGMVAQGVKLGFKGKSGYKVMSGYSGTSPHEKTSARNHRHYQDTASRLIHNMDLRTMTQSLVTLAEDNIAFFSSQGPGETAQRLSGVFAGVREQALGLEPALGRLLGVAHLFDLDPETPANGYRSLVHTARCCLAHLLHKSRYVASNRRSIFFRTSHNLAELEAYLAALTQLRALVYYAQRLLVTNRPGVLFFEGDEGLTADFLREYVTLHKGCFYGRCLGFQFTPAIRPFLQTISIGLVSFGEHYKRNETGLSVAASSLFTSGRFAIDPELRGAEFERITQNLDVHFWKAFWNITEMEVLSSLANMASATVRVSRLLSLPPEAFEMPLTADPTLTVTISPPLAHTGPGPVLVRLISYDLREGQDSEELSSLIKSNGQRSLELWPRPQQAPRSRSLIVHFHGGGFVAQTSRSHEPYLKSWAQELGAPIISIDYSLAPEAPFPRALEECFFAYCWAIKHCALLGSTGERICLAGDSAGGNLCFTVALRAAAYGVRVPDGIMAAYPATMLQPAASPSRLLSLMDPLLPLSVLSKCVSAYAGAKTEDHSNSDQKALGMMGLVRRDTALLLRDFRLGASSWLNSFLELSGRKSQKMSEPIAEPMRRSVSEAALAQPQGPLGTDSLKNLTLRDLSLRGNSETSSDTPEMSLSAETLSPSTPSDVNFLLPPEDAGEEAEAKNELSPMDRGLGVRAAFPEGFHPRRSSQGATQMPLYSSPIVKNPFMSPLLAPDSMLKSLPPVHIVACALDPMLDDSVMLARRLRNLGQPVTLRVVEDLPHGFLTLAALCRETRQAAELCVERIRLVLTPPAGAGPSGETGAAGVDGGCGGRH
Test: Human Hormone-Sensitive Lipase (HSL) enzyme inhibition assay (colorimetric, DMPT substrate)
Type: biochemical
Conditions: human full length HSL-His6, 2,3-dimercapto-1-propanol tributyrate substrate, 37° C., 20 minutes; read-out: HSL hum IC50
Description: Production of Human full length Hormone Sensitive Lipase-His^6: • 1) Cloning: cDNA was prepared from commercial human brain polyA+ RNA and used as a template in overlapping PCR to generate a full length human HSL ORF with a 3′-His6 tag. This full length insert was cloned into the pFast-BAC vector and the DNA-sequence of several single clones was verified. DNA from a correct full length clone with the 3′His6 tag was used to transform the E. coli strain DH10BAC. Resulting bacmid DNA was used to generate a titered baculovirus stock for protein generation. The sequence of the encoded HSL conforms to Swissprot entry Q05469, with the additional C-terminal His6-tag. • 2) Protein purification: Culture: 5.5 L, High 5 cells expressing human full length HSL-His^6, 48 hr., containing 25 μM E-64. Cell count: […], 90% viable. Cells were thawed. On ice, cells were suspended in Base Buffer containing 10% glycerol, 25 mM Tris-Cl, 300 mM NaCl, 10 mM imidazole, 10 mM 2-mercaptoethanol, 2 μg pepstatin/ml, 2 μg leupeptin/ml, 2 μg antipain/ml, pH 8.0 at 4° C. in a final volume of 475 ml with 3.75×10^7 cells/ml. […] was done at 3×30 sec., Lubrol PX was added to 0.2% final concentration followed by stirring for 15 min at 4° C. and centrifugation at 25 k×g, 60 min, 4° C. Soluble proteins were mixed with 60 ml of pre-washed and equilibrated Ni-NTA Agarose (Qiagen 30210) followed by tumbling end-over-end, 45 min., 4° C., centrifugation 1000 rpm 5 min and letting resin settle […]. Supernatant was removed, the resin washed in the centrifuge vessel using 5 volumes of Base Buffer containing 0.2% Lubrol PX. Centrifugation was done again, then the supernatant discarded. The resin was poured onto a 0.8 μm membrane in a disposable filter unit (Nalge 450-0080), and washed with 5 volumes of Base Buffer containing 0.2% Lubrol PX. It was then washed with 30 volumes of Base Buffer containing 60 mM imidazole pH 7.5 at 4° C. The protein was eluated with 5 volumes of 25 mM Tris-Cl, 300 mM NaCl, 200 mM imidazole, 10 mM 2-mercaptoethanol, pH 7.5 at 4° C. by tumbling resin with buffer end-over-end, 30 min., 4° C. The resin was captured on a 0.2 μm membrane disposable filter unit (Millipore SCGP U02 RE) and the eluate collected in the reservoir. The eluate was concentrated using a 30 k MWCO centrifugal filter device (Sartorius Vivascience Vivacell 100, VC1022), to 20 ml. It was then dialyzed overnight at 4° C., two times against 2 L of 10% glycerol, 25 mM Tris-Cl, 300 mM NaCl, 0.2 mM EDTA, 0.2 mM DTT, pH 7.5 at 4° C. The protein was filtered using a 0.22 μm disposable filter unit (Millipore SCGP00525). The protein concentration was calculated from absorbance at 280 nm, using 280=0.67 cm^−1 mg-1. Yield was 235 mg, total. The protein was stored at −80° C.
Human Hormone-Sensitive Lipase (HSL) Enzyme Inhibition Assay: • HSL enzyme activity was measured by a colorimetric assay using 2,3-dimercapto-1-propanol tributyrate (Aldrich, St. Louis, Mo.) as a substrate. Typically, 1.5 mM 2,3-dimercapto-1-propanol tributyrate (DMPT) in 100 mM MOPS, pH 7.2, 0.2 mg/ml fatty acid-free BSA was prepared by sonication at 4° C. to homogenous suspension. Test compounds (2 mM stock in DMSO) were diluted 3 fold in series in DMSO. Compound solutions were diluted 24 fold in 1.5 mM DMPT containing solution and 18 μl per well was added to 384-well microplates (Corning Costar). Twelve microliters per well of human HSL (15 μg/ml) was added and the reaction mixture was incubated at 37° C. for 20 minutes. Six microliters of 12 mM dithio-bis-(2-nitrobenzoic acid) (DTNB) in DMSO plus 1.2% SDS and 0.6% Triton X-100 were added and the mixture was incubated at room temperature for 15 minutes. Product production was monitored by reading absorbance at 405 nm on an Envision Reader (PerkinElmer Life and Analytical Sciences, Shelton, Conn.).

Compared with `CC1(C)CCC(=O)N1C[C@]1(O)CC[C@]2(CCN(c3ccc([C@@H](O)C(F)(F)F)cc3)C2=O)CC1` [Example 9, (5α,8α)-8-(2,2-Dimethyl-5-oxo-pyrrolidin-1-ylmethyl)-8-hydroxy-2-[4-((R)-2,2,2-trifluoro-1-hydroxy-ethyl)-phenyl]-2-aza-spiro[4.5]decan-1-one], `O=C1CCC2(CC2)N1C[C@]1(O)CC[C@]2(CCN(c3ccc([C@@H](O)C(F)(F)F)cc3)C2=O)CC1` [Example 17, (5α,8α)-8-Hydroxy-8-(5-oxo-4-aza-spiro[2.4]hept-4-ylmethyl)-2-[4-((R)-2,2,2-trifluoro-1-hydroxy-ethyl)-phenyl]-2-aza-spiro[4.5]decan-1-one] is 0.44 log units lower in pIC50: 7.84 for the first, 7.40 for the second. The first is the more potent here.

First: CC(C)Oc1ccc(N2CC[C@]3(CC[C@@](O)(CN4CCN(C)C4=O)CC3)C2=O)cn1 [Example 7, (5α,8α)-8-Hydroxy-2-(6-isopropoxy-pyridin-3-yl)-8-(3-methyl-2-oxo-imidazolidin-1-ylmethyl)-2-aza-spiro[4.5]decan-1-one]
Second: CC(C)Oc1ccc(N2CC[C@]3(CC[C@@](O)(CN4CCNC4=O)CC3)C2=O)cn1 [Example 8, (5α,8α)-8-hydroxy-2-(6-isopropoxypyridin-3-yl)-8-((2-oxoimidazolidin-1-yl)methyl)-2-azaspiro[4.5]decan-1-one]
The pIC50 of the first is 0.34 log units higher: 6.86 for the first, 6.52 for the second. The first is the more potent here.

`O=C1CCC2(CC2)N1C[C@]1(O)CC[C@]2(CCN(c3ccc(OCC(F)(F)F)cc3)C2=O)CC1` [Example 13, (5α,8α)-8-Hydroxy-8-(5-oxo-4-aza-spiro[2.4]hept-4-ylmethyl)-2-[4-(2,2,2-trifluoro-ethoxy)-phenyl]-2-aza-spiro[4.5]decan-1-one] and `C[C@@H](Oc1ccc(N2CC[C@]3(CC[C@@](O)(CN4C(=O)CCC45CC5)CC3)C2=O)cc1)C(F)(F)F` [Example 11, (5α,8α)-8-hydroxy-8-((5-oxo-4-azaspiro[2.4]heptan-4-yl)methyl)-2-(4-((R)-1,1,1-trifluoropropan-2-yloxy)phenyl)-2-azaspiro[4.5]decan-1-one] are within 0.2 log units of each other in pIC50: 8.12 for the first, 8.15 for the second.

`C[C@H](Oc1ccc(N2CC[C@]3(CC[C@@](O)(CN4C(=O)CCC45CC5)CC3)C2=O)cn1)C(F)(F)F` [Example 12, (5α,8α)-8-hydroxy-8-((5-oxo-4-azaspiro[2.4]heptan-4-yl)methyl)-2-(6-((S)-1,1,1-trifluoropropan-2-yloxy)pyridin-3-yl)-2-azaspiro[4.5]decan-1-one] and `CC(C)Oc1ccc(N2CC[C@]3(CC[C@@](O)(CN4C(=O)CCC45CC5)CC3)C2=O)cc1` [Example 4, (5α,8α)-8-Hydroxy-2-(4-isopropoxy-phenyl)-8-(5-oxo-4-aza-spiro[2.4]hept-4-ylmethyl)-2-aza-spiro[4.5]decan-1-one] are within 0.2 log units of each other in pIC50: 8.01 for the first, 7.94 for the second.

First: O=C1OCC2(CC2)N1C[C@]1(O)CC[C@]2(CCN(c3ccc(OCC(F)(F)F)cc3)C2=O)CC1 [Example 15, (5α,8α)-8-Hydroxy-8-(5-oxo-6-oxa-4-aza-spiro[2.4]hept-4-ylmethyl)-2-[4-(2,2,2-trifluoro-ethoxy)-phenyl]-2-aza-spiro[4.5]decan-1-one]
Second: O=C1OCCN1C[C@]1(O)CC[C@]2(CCN(c3ccc(OCC(F)(F)F)cc3)C2=O)CC1 [Example 16, (5α,8α)-8-Hydroxy-8-(2-oxo-oxazolidin-3-ylmethyl)-2-[4-(2,2,2-trifluoro-ethoxy)-phenyl]-2-aza-spiro[4.5]decan-1-one]
The pIC50 of the first is 0.82 log units lower: 6.00 for the first, 6.82 for the second.

First: CN1CCN(C[C@]2(O)CC[C@]3(CCN(c4ccc([C@@H](O)C(F)(F)F)cc4)C3=O)CC2)C1=O [Example 10, (5α,8α)-8-Hydroxy-8-(3-methyl-2-oxo-imidazolidin-1-ylmethyl)-2-[4-((R)-2,2,2-trifluoro-1-hydroxy-ethyl)-phenyl]-2-aza-spiro[4.5]decan-1-one]
Second: CC(C)Oc1ccc(N2CC[C@]3(CC[C@@](O)(CN4CCN(C)C4=O)CC3)C2=O)cc1 [Example 3, (5α,8α)-8-hydroxy-2-(4-isopropoxyphenyl)-8-((3-methyl-2-oxoimidazolidin-1-yl)methyl)-2-azaspiro[4.5]decan-1-one]
The pIC50 of the first is 0.75 log units lower: 6.87 for the first, 7.62 for the second. The second is the more potent here.

First: CC(C)Oc1ccc(N2CC[C@]3(CC[C@@](O)(CN4CC[C@@H](O)C4=O)CC3)C2=O)cc1 [Example 6, (5α,8α)-8-Hydroxy-8-(((R)-3-hydroxy-2-oxopyrrolidin-1-yl)methyl)-2-(4-isopropoxyphenyl)-2-azaspiro[4.5]decan-1-one]
Second: CC(C)Oc1ccc(N2CC[C@]3(CC[C@@](O)(CN4CCOC4=O)CC3)C2=O)cc1 [Example 5, 3-(((5α,8α)-8-Hydroxy-2-(4-isopropoxyphenyl)-1-oxo-2-azaspiro[4.5]decan-8-yl)methyl)oxazolidin-2-one]
The pIC50 of the first is 1.01 log units lower: 7.22 for the first, 8.23 for the second. The second is the more potent here.

`CC1(C)CCC(=O)N1C[C@]1(O)CC[C@]2(CCN(c3ccc(C(F)(F)F)cc3)C2=O)CC1` [Example 1, (5α,8α)-8-((2,2-dimethyl-5-oxopyrrolidin-1-yl)methyl)-8-hydroxy-2-(4-(trifluoromethyl)phenyl)-2-azaspiro[4.5]decan-1-one] and `CC(C)Oc1ccc(N2CC[C@]3(CC[C@@](O)(CN4C(=O)CCC4(C)C)CC3)C2=O)cc1` [Example 2, (5α,8α)-8-((2,2-dimethyl-5-oxopyrrolidin-1-yl)methyl)-8-hydroxy-2-(4-isopropoxyphenyl)-2-azaspiro[4.5]decan-1-one] are within 0.2 log units of each other in pIC50: 7.83 for the first, 7.90 for the second.
